US8178506B2, “Oligomeric compounds and compositions for use in modulation of small non-coding RNAs” (Regulus Therapeutics Inc., priority 2003, dated 2012)
In the oligonucleotide strings, read from the 5' end, every base follows the letter of its sugar. An asterisk marks phosphorothioate; unmarked linkages are phosphodiester. Other units and linkages are bracketed, terminal groups are in braces. A string of capitals states the bases alone. e = 2'-O-(2-methoxyethyl) (MOE); [5mC] = 5-methylcytosine

Key:
IGFBP-1 = IGFBP-1 mRNA expression in HepG2 cells; type: cell-based, human; conditions: for IGFBP1 mRNA expression: Experiment 2, insulin treated: HepG2 cells transfected with oligomeric compound, 1 nM insulin for four hours, UTC + 1 nM insulin = 100; for IGFBP1 mRNA: HepG2 cells, Experiment 1, basal (no insulin), four hours, UTC = 100
HuVECs = assay: Endothelial tube formation assay in HuVECs; conditions: 75 nM oligomeric compound
PPARγ = PPARγ mRNA expression in adipocytes (real-time PCR); type: cell-based, human; conditions: differentiating adipocytes transfected with oligomeric compound; Table 75
HSL = HSL mRNA expression in adipocytes (real-time PCR); type: cell-based, human; conditions: differentiating adipocytes transfected with oligomeric compound; Table 75

| Substance | IGFBP1 mRNA expression (IGFBP-1) | IGFBP1 mRNA (IGFBP-1) | % Activity Relative to UTC (tube formation) (HuVECs; Table 59) | PPAR gamma mRNA (PPARγ) | HSL mRNA (HSL) | % Activity Relative to UTC (tube formation) (HuVECs; Table 58) | % Activity Relative to UTC (tube formation) (HuVECs; Table 56) |
| --- | --- | --- | --- | --- | --- | --- | --- |
| 327963 (antisense eA*eA*e[5mC]*e[5mC]*eT*eA*eT*e[5mC]*e[5mC]*eT*eG*eA*eA*eT*eT*eA*e[5mC]*eT*eT*eG*eA*eA) [compound 327963] | 111 | 108 | 93.3% | 91 percentage of untreated control (UTC) | 89 percentage of untreated control (UTC) | – | – |
| 327924 (antisense eG*e[5mC]*eA*eA*eG*e[5mC]*e[5mC]*e[5mC]*eA*eG*eA*e[5mC]*e[5mC]*eG*e[5mC]*eA*eA*eA*eA*eA*eG) [compound 327924] | – | – | – | – | – | 88.9% | – |
| 327952 (antisense e[5mC]*eT*eA*e[5mC]*eG*e[5mC]*eG*eT*eA*eT*eT*e[5mC]*eT*eT*eA*eA*eG*e[5mC]*eA*eA*eT*eA) [compound 327952] | 103 | 123 | 53.3% | 84 percentage of untreated control (UTC) | 64 percentage of untreated control (UTC) | – | – |
| 327957 (antisense e[5mC]*eA*e[5mC]*eA*eA*eG*eT*eT*e[5mC]*eG*eG*eA*eT*e[5mC]*eT*eA*e[5mC]*eG*eG*eG*eT*eT) [compound 327957] | 184 | 143 | 66.7% | 68 percentage of untreated control (UTC) | 15 percentage of untreated control (UTC) | – | – |
| 327940 (antisense eG*eA*eA*e[5mC]*eA*eG*eG*eT*eA*eG*eT*e[5mC]*eT*eG*eA*eA*e[5mC]*eA*e[5mC]*eT*eG*eG*eG) [compound 327940] | – | – | – | 64 percentage of untreated control (UTC) | 67 percentage of untreated control (UTC) | 59.3% | – |
| 327964 (antisense e[5mC]*e[5mC]*eA*eA*eG*eT*eT*e[5mC]*eT*eG*eT*e[5mC]*eA*eT*eG*e[5mC]*eA*e[5mC]*eT*eG*eA) [compound 327964] | 121 | 100 | 86.7% | 93 percentage of untreated control (UTC) | 102 percentage of untreated control (UTC) | – | – |
| 327873 (antisense e[5mC]*eT*eA*e[5mC]*e[5mC]*eA*eT*eA*eG*eG*eG*eT*eA*eA*eA*eA*e[5mC]*e[5mC]*eA*e[5mC]*eT) [compound 327873] | – | 108 | – | 104 percentage of untreated control (UTC) | 116 percentage of untreated control (UTC) | – | 100.0% |
| 327944 (antisense eA*eA*eA*eG*eT*eG*eT*e[5mC]*eA*eG*eA*eT*eA*e[5mC]*eG*eG*eT*eG*eT*eG*eG) [compound 327944] | – | – | – | 64 percentage of untreated control (UTC) | 55 percentage of untreated control (UTC) | 37.0% | – |
| 327959 (antisense e[5mC]*eA*eG*e[5mC]*e[5mC]*eG*e[5mC]*eT*eG*eT*e[5mC]*eA*e[5mC]*eA*e[5mC]*eG*e[5mC]*eA*e[5mC]*eA*eG) [compound 327959] | 141 | 124 | 40.0% | 65 percentage of untreated control (UTC) | 11 percentage of untreated control (UTC) | – | – |
| 327935 (antisense e[5mC]*eT*eA*e[5mC]*e[5mC]*eT*eG*e[5mC]*eA*e[5mC]*eT*eA*eT*eA*eA*eG*e[5mC]*eA*e[5mC]*eT*eT*eT*eA) [compound 327935] | – | – | – | 67 percentage of untreated control (UTC) | 61 percentage of untreated control (UTC) | 74.1% | – |
| 327971 (antisense eG*eG*eA*eA*eA*eT*e[5mC]*e[5mC]*e[5mC]*eT*eG*eG*e[5mC]*eA*eA*eT*eG*eT*eG*eA*eT) [compound 327971] | – | – | – | 69 percentage of untreated control (UTC) | 38 percentage of untreated control (UTC) | – | – |
| 327946 (antisense eA*eG*eG*e[5mC]*eG*eA*eA*eG*eG*eA*eT*eG*eA*e[5mC]*eA*eA*eA*eG*eG*eG*eA*eA) [compound 327946] | 138 | 108 | – | 81 percentage of untreated control (UTC) | 76 percentage of untreated control (UTC) | 51.9% | – |
| 327936 (antisense eA*e[5mC]*eA*eG*e[5mC]*eT*eG*eG*eT*eT*eG*eA*eA*eG*eG*eG*eG*eA*e[5mC]*e[5mC]*eA*eA) [compound 327936] | – | – | – | 47 percentage of untreated control (UTC) | 40 percentage of untreated control (UTC) | 51.9% | – |
| 327945 (antisense e[5mC]*eT*eG*eT*eT*e[5mC]*e[5mC]*eT*eG*e[5mC]*eT*eG*eA*eA*e[5mC]*eT*eG*eA*eG*e[5mC]*e[5mC]*eA) [compound 327945] | – | – | – | 51 percentage of untreated control (UTC) | 41 percentage of untreated control (UTC) | 59.3% | – |
| 327949 (antisense e[5mC]*eA*e[5mC]*eA*eA*eA*eT*eT*e[5mC]*eG*eG*eA*eT*e[5mC]*eT*eA*e[5mC]*eA*eG*eG*eG*eT*eA) [compound 327949] | 172 | 112 | 66.7% | 54 percentage of untreated control (UTC) | 49 percentage of untreated control (UTC) | – | – |
| 327950 (antisense eT*e[5mC]*eA*eG*eT*eT*eT*eT*eG*e[5mC]*eA*eT*eA*eG*eA*eT*eT*eT*eG*e[5mC]*eA*e[5mC]*eA) [compound 327950] | 124 | 109 | 73.3% | 93 percentage of untreated control (UTC) | 94 percentage of untreated control (UTC) | – | – |
| 327961 (antisense eG*eG*eG*eG*eT*eA*eT*eT*eT*eG*eA*e[5mC]*eA*eA*eA*e[5mC]*eT*eG*eA*e[5mC]*eA) [compound 327961] | 160 | 150 | 53.3% | 95 percentage of untreated control (UTC) | 88 percentage of untreated control (UTC) | – | – |
| 327965 (antisense eA*eT*e[5mC]*eA*e[5mC]*eA*eT*eA*eG*eG*eA*eA*eT*eA*eA*eA*eA*eA*eG*e[5mC]*e[5mC]*eA*eT*eA) [compound 327965] | 105 | 106 | 100.0% | 91 percentage of untreated control (UTC) | 84 percentage of untreated control (UTC) | – | – |
| 327958 (antisense e[5mC]*e[5mC]*eG*eG*e[5mC]*eT*eG*e[5mC]*eA*eA*e[5mC]*eA*e[5mC]*eA*eA*eG*eA*e[5mC]*eA*e[5mC]*eG*eA) [compound 327958] | 149 | 119 | 40.0% | 55 percentage of untreated control (UTC) | 5 percentage of untreated control (UTC) | – | – |
